# Data published in publication PMC11148772, “Inhibition of protein translational machinery in triple-negative breast cancer as a promising therapeutic strategy” (Cell Reports Medicine, 2024).
# “Also recorded” adds a separate entry of the source.
# Tests used:
# [1] = system: TNBC cells (MDA-MB-231, MDA-MB-468, SUM159); assay: Immunoblot assay of cell lysates; type: cell-based, human
# Experimental: MDA-MB-231, MDA-MB-468, and SUM159 cells were grown to 60–70% confluency and treated with DMSO and SU056 (1 μM) for 12 and 24 h. After the specific treatment time was over, total cell lysates were prepared in non-denaturing lysis buffer. For protein lysate from tumors: randomly selected frozen sample; three from vehicle and SU056 treated group were homogenized in non-denaturing lysis buffer at 4°C for 5 min. 10 μg of protein lysate per sample was resolved on 8–16% SDS-PAGE. Membranes were probed with specific primary antibodies followed by detection with HRP-conjugated appropriate secondary antibodies, visualized by enhanced chemiluminescence detection system, and imaged using an iBright imaging system (Thermo Fisher, USA).
# [2] = system: pharmacology panel (receptors, channels, transporters, enzymes); assay: In vitro radioligand binding and enzyme and uptake assay panel; conditions: 10 μM
# Experimental: The compound SU056 was tested for its radioligand binding and enzyme and uptake characteristics by Eurofins lab services (Eurofins discovery). The screening was performed at 10 μM of SU056. The binding was calculated as % inhibition of the binding of a radioactively labeled ligand specific to each target. The SU056 enzyme inhibition effect was determined as % inhibition of control enzyme activity.
# [3] = Maximum tolerated dose / acute oral toxicity; type: in vivo, mouse; conditions: for Body Weight, Mean / Toxicity (death/test): ICR (Female) mice
# Experimental: The acute oral toxicity of SU056 was evaluated by Eurofins lab services (Eurofins discovery). The oral toxicity study was performed in female rats and mice for multiple escalating doses (100 mg/kg, 200 mg/kg, 400 mg/kg). Rats and mice were monitored for their behavioral, neurological and autonomic signs after administration of SU056. The response was recorded as 0; no adverse effect, ±1 mild adverse effect, ±2, moderate adverse effect and ±3 severe adverse effect.
structure (smiles),measurement,setting,value
"O=C1OCC2=C1C(c1cccc(F)c1)c1cc3c(cc1N2CCO)OCO3 (stereo not shown) [SU056, 9-(3-fluorophenyl)-5-(2-hydroxyethyl)-6,9-dihydro-[1,3]dioxolo[4,5-g]furo[3,4-b]quinolin-8(5H)-one]","RPLs (RPL36, RPL35, RPL32, RPL23A, RPL15, RPL11, RPL9)","[1]; 1 μM, 12 and 24 h",decreased
same,YB-1 expression,"[1]; 1 μM, 12 and 24 h",decreased
same,c-Myc expression,"[1]; 1 μM, 12 and 24 h",decreased
same,expression of RPSs,"[1]; 1 μM, 12 and 24 h",lower expression
same,levels of translation initiation factors,"[1]; 1 μM, 12 and 24 h",decreased
same,overall levels of mTOR,"[1]; 1 μM, 12 and 24 h",decreased
same,phosphorylation of mTOR (S2448),"[1]; 1 μM, 12 and 24 h",inhibited
same,phosphorylation of p70S6 kinase (T389 and S371) and S6R (S235/S236),"[1]; 1 μM, 12 and 24 h",decreased
same,"phospho-histone H3 (Ser10), mitotic phase marker",[1]; 12 and 24 h,arrests TNBC cells in the mitotic phase
same,"integrated stress response activation (PERK, eIF2α, ATF4)","[1]; MDA-MB-231 and MDA-MB-468, 1 μM",did not induce
same,cell cycle regulatory proteins (p21 and p27),"[1]; MDA-MB-231 and MDA-MB-468, 1 μM, 12 and 24 h",moderate increase
same,effect on major pharmacological parameters (binding and enzyme assays),[2],does not affect
same,"Body Weight, Mean","[3]; 100 mg/kg, 0 hr",23.0 gm
same,Toxicity (death/test),"[3]; 100 mg/kg, 15 min",0/3
same,Toxicity (death/test),"[3]; 100 mg/kg, 1 hr",0/3
same,"Body Weight, Mean","[3]; 100 mg/kg, 24 hr",23.0 gm
same,Toxicity (death/test),"[3]; 100 mg/kg, 24 hr",0/3
same,"Body Weight, Mean","[3]; 100 mg/kg, 48 hr",23.3 gm
same,Toxicity (death/test),"[3]; 100 mg/kg, 48 hr",0/3
same,"Body Weight, Mean","[3]; 100 mg/kg, 72 hr",24.3 gm
same,Toxicity (death/test),"[3]; 100 mg/kg, 72 hr",0/3
same,"Body Weight, Mean","[3]; 200 mg/kg, 0 hr",23.7 gm
same,Toxicity (death/test),"[3]; 200 mg/kg, 15 min",0/3
same,Toxicity (death/test),"[3]; 200 mg/kg, 1 hr",0/3
same,"Body Weight, Mean","[3]; 200 mg/kg, 24 hr",24.0 gm
same,Toxicity (death/test),"[3]; 200 mg/kg, 24 hr",0/3
same,"Body Weight, Mean","[3]; 200 mg/kg, 48 hr",24.0 gm
same,Toxicity (death/test),"[3]; 200 mg/kg, 48 hr",0/3
same,"Body Weight, Mean","[3]; 200 mg/kg, 72 hr",24.3 gm
same,Toxicity (death/test),"[3]; 200 mg/kg, 72 hr",0/3
same,"Body Weight, Mean","[3]; 400 mg/kg, 0 hr",22.7 gm
same,Toxicity (death/test),"[3]; 400 mg/kg, 15 min",0/3
same,Toxicity (death/test),"[3]; 400 mg/kg, 1 hr",0/3
same,"Body Weight, Mean","[3]; 400 mg/kg, 24 hr",22.7 gm
same,Toxicity (death/test),"[3]; 400 mg/kg, 24 hr",0/3
same,"Body Weight, Mean","[3]; 400 mg/kg, 48 hr",23.3 gm
same,Toxicity (death/test),"[3]; 400 mg/kg, 48 hr",0/3
same,"Body Weight, Mean","[3]; 400 mg/kg, 72 hr",24.3 gm
same,Toxicity (death/test),"[3]; 400 mg/kg, 72 hr",0/3
same,"behavioral, neurological, and anatomical signs of toxicity and morbidity","[3]; mice, 100, 200, and 400 mg/kg oral gavage, 72 h",not affected; also recorded: no observable changes
